Reference: patent US8790653B2, “Peptide inhibitors for mediating stress responses” (Yeda Research and Development Co. Ltd., priority 2004, dated 2014)
Where no end group is shown, it is not given here. [ ]: non-standard residue; d: D form.

Columns and labels:
[1] = Ethanol toxic stress in primary hepatocyte cultures (trypan blue exclusion); format: cell-based; conditions: primary hepatocyte cultures
Protocol: (§1) To learn whether Stressin peptide may protect from toxic stress, primary hepatocyte cultures were incubated with or without ethanol at a concentration of 0.6%, and with 50 μM Stressin-1 or without peptide. After 48 hours, the numbers of dead and alive cells were determined by trypan blue exclusion (Table 3).

[2] = tested on: primary hepatocyte cultures; assay: as above; format: cell-based; conditions: with 0.6% ethanol; 50 μM peptide; 48 hours
Protocol: as §1

BALB/c mice = assay: Whole body γ-irradiation of BALB/c mice (radiation disease); format: in vivo; conditions: 6.5 Gy, 500 μg/mouse intraperitoneally one hour after irradiation
Source text: To test whether Stressin peptide may protect an organism from death by excessive p53 activation and tissue failure by subjecting BALB/c mice to whole body […] (6.5 Gy). A retro-inverso peptide was used to determine whether prolonged in vivo half-life would give an advantage (see Example 6); retro-inverso peptides are resistant to proteases and consist of D-amino acids in reversed order, resulting in an altered peptide backbone but unchanged orientation of the side chains (Van Regenmortel, 1998).
BALB/c mice were subjected to whole body γ-irradiation (6.5 Gy). One hour after irradiation, the mice received intraperitoneally either Stressin-1 (n=7; SEQ ID NO:1) or a modified, retro-inverso Stressin-1 peptide (n=7; SEQ ID NO:5), both at a concentration of 500 μg/mouse, or a sham injection with saline (n=6). The retro-inverso peptide was used to determine whether prolonged in vivo-half-life would give an advantage.

L12 cells with p53 = assay: Hyperthermia-induced cell death in L12 cells with active p53 (trypan blue); format: cell-based; conditions: 2 hours at 42° C., peptide 100 μg/ml
Protocol: The selected candidate peptides were tested for their ability to interfere with the p53-mediated cellular stress response by testing their capacity to inhibit the response to hyperthermia of the L12 cell line (Wolf, 1984), which lacks endogenous p53 activity and had been stably transfected with the p53 gene or a control vector. In these cells, p53 activity induces growth arrest and cell survival rather than apoptosis in response to hyperthermia (Nitta, 1997).
The amount of cell death was assessed by staining the cells with the vital dye trypan blue (Sigma) and counting the ratio of dead/live cells per visual field with a light microscope.
incubation for 2 hours at 42° C. induced death of all cells that lacked p53 and, in contrast, transient growth arrest and survival of about 80% of the cells with active p53. Four peptides, designated Stressin-1 to −4 (for STress RESponse Specific peptide INhibitor), were identified that at concentrations of 100 μg/ml inhibited p53-mediated growth arrest after hyperthermia and induced death of almost all cells with active p53, which is the response of L12 cells that lack p53 activity (Table 1); the peptide sequences are shown in Table 2.

L12 cells = assay: Cisplatin-induced p53-mediated cell death of L12 cells (DNA content, propidium iodide, FACS); format: cell-based; conditions: 50 μM Cisplatin, 48 hours
Protocol: L12 cells were treated for 48 hours with 50 μM of the DNA-damaging agent Cisplatin and p53-mediated cell death was determined by measuring the DNA content of cells stained with propidium iodide (FIG. 1). Cells incubated in the absence of peptide responded to Cisplatin treatment with p53-mediated cell death.

**Q.** With LPPLPYP [Stressin-1, LPPLPYP] as the substance, how does the viability at 48 h, 50 µM [1] read?
**A.** 100%

**Q.** And the Survival of hepatocytes [2]?
**A.** 20%

**Q.** Which mice dead (BALB/c mice; after 17 days) does the source give for “PYPLPPL ([dP][dY][dP][dL][dP][dP][dL]; also: retro-inverso) [modified Stressin-1 peptide, retro-inverso Stressin-1 peptide, D-amino acids in reversed order]” here?
**A.** 29%

**Q.** And the “mice recovered from radiation disease” value (BALB/c mice; after 40 days)?
**A.** 57%

**Q.** What does the source list for DLSTDALHYRTA [Stressin-2]?
**A.** Incidence of cell death induced by hyperthermia (L12 cells with p53): 90%; cells rescued from p53-mediated cell death (L12 cells): 25%

**Q.** With SSLSVDYPTRYP [Stressin-4] as the substance, how does the “Incidence of cell death induced by hyperthermia” value (L12 cells with p53) read?
**A.** 80%

**Q.** Which “Incidence of cell death induced by hyperthermia” value (L12 cells with p53) does the source give for HPTNQQSLWRWP [Stressin-3] here?
**A.** 80%
